Measurements as given in patent US10150774B2, “Compounds and methods” (INTRA-CELLULAR THERAPIES, INC., priority 2014, dated 2018).

The molecules below were run on PDE1 (assay: Measurement of PDEIB inhibition in vitro using IMAP phosphodiesterase assay kit).
Assay type: biochemical, bovine or human
From the text: Example 10: Measurement of PDEIB Inhibition in Vitro Using IMAP Phosphodiesterase Assay Kit
Phosphodiesterase I B (PDEIB) is a calcium/calmodulin dependent phosphodiesterase enzyme that converts cyclic guanosine monophosphate (cGMP) to 5′-guanosine monophosphate (5′-GMP). PDEIB can also convert a modified cGMP substrate, such as the fluorescent molecule cGMP-fluorescein, to the corresponding GMP-fluorescein. The generation of GMP-fluorescein from cGMP-fluorescein can be quantitated, using, for example, the IMAP (Molecular Devices, Sunnyvale, Calif.) immobilized-metal affinity particle reagent.
Briefly, the IMAP reagent binds with high affinity to the free 5′-phosphate that is found in GMP-fluorescein and not in cGMP-fluorescein. The resulting GMP-fluorescein-IMAP complex is large relative to cGMP-5 fluorescein. Small fluorophores that are bound up in a large, slowly tumbling, complex can be distinguished from unbound fluorophores, because the photons emitted as they fluoresce retain the same polarity as the photons used to excite the fluorescence.
In the phosphodiesterase assay, cGMP-fluorescein, which cannot be bound to IMAP, and therefore retains little fluorescence polarization, is converted to GMPfluorescein, which, when bound to IMAP, yields a large increase in fluorescence polarization (mp). Inhibition of phosphodiesterase, therefore, is detected as a decrease in mp.
Materials: All chemicals are available from Sigma-Aldrich (St. Louis, Mo.) except for IMAP reagents (reaction buffer, binding buffer, FL-GMP and IMAP beads), which are available from Molecular Devices (Sunnyvale, Calif.).
Assay: The following phosphodiesterase enzymes may be used: 3′,5′-cyclic-nucleotide specific bovine brain phosphodiesterase (Sigma, St. Louis, Mo.) (predominantly PDEIB) and recombinant full length human PDE1 A and PDE1B (r-hPDE1 A and r-hPDE1B respectively) which may be produced e.g., in HEK or SF9 cells by one skilled in the art. The PDE1 enzyme is reconstituted with 50% glycerol to 2.5 U/mL. One unit of enzyme will hydrolyze 1.0 μmol of 3′,5′-cAMP to 5′-AMP per min at pH 7.5 at 30° C. […]
The FL-GMP conversion reaction is initiated by combining 4 parts enzyme and inhibitor mix with 1 part substrate solution ([…]) in a 384-well microtiter plate. […] The plate is incubated at room temperature for 1 hour to allow IMAP binding to proceed to completion, and then placed in an Envision multimode microplate reader (PerkinElmer, Shelton, Conn.) to measure the fluorescence polarization (mp).
A decrease in GMP concentration, measured as decreased mp, is indicative of inhibition of PDE activity.

Row | selectivity for PDE1 | SMILES
1 | good selectivity | CN1C(=O)c2c(nn(Cc3ccc(-c4ccccn4)cc3)c2Nc2ccc(F)cc2)N2CC(C)(C)N=C12 [Example 1, 7,8-Dihydro-2-(4-(pyridine-2-yl)benzyl)-3-(4-fluorophenylamino)-5,7,7-trimethyl-[2H]-imidazo-[1,2-a]pyrazolo[4,3-e]pyrimidin-4(5H)-one]
2 | good selectivity | CCc1c2c(nn1Cc1ccc(-c3ccc(F)cn3)cc1)N1CC(C)(C)N=C1N(C)C2=O [Example 5, 7,8-Dihydro-2-(4-(5-fluoropyridin2-yl)benzyl)-3-ethyl-5,7,7-trimethyl-[2H]-imidazo-[1,2-a]pyrazolo[4,3-e]pyrimidin-4(5H)-one]
3 | good selectivity | CCCc1c2c(nn1Cc1ccc(-c3ccc(F)cn3)cc1)N1CC(C)(C)N=C1N(C)C2=O [Example 7, 7,8-Dihydro-2-(4-(5-fluoropyridin2-yl)benzyl)-3-propyl-5,7,7-trimethyl-[2H]-imidazo-[1,2-a]pyrazolo[4,3-e]pyrimidin-4(5H)-one]
4 | good selectivity | CN1C(=O)c2c(nn(Cc3ccc(Cl)cc3)c2Nc2ccc(F)cc2)N2CC(C)(C)N=C12 [Example 9, 7,8-Dihydro-2-(4-chlorobenzyl)-3-(4-fluorophenylamino)-5,7,7-trimethyl-[2H]-imidazo-[1,2-a]pyrazolo[4,3-e]pyrimidin-4(5H)-one]
